Measurements taken from US20110046385A1, “Polymorphs Of Prostaglandin Agonists And Methods For Making The Same” (priority 2007, published 2011).

How the values were obtained:
tibia defect site = conditions: beagles, 0.2 mg/kg injected into tibia defect site twice a day for 10 days; cited from earlier work
rib fracture site = conditions: adult beagles, 0.2 mg injected into rib fracture sites twice a day for 10 days; cited from earlier work
[1] = test system: alveolar bone in the mandible; conditions: dogs, local infusion for 3 weeks, 500 to 2000 μg per week; cited from earlier work
[2] = test system: trabecular bone in the tibial metaphysis; conditions: daily intraosseous injections into left tibia metaphysis for 14 days; cited from earlier work
[3] = test system: Bone Morphogenetic Protein 7 (BMP-7) expression in wild type 293S cells; experiment: Kidney regeneration assay: BMP-7 expression (Northern blot) in wild type 293S cells; type: cell-based, human; conditions: parental 293S cell line, 10^-6M, RNA at 8, 16 and 24 hours
Method: (§1) Methods: 293S and EP2 293S cells are grown in Dulbecco's Modified Eagle medium (DMEM, Gibco, BRL; Gaithersburg, Md.). […] Cells are harvested and RNA is extracted at 8, 16 and 24 hours. Northern blot analysis of total RNA ([…]) is carried out by probing the blots with ^32P-labeled BMP-7 probe. The blots are normalized for RNA loading by hybridization with ^32P-labeled 18s ribosomal RNA probe. […] Given the known role of BMP-7 in kidney regeneration and the ability of an prostaglandin agonist to induce BMP-7 expression in 293S kidney cells in a time and receptor specific manner indicates a role for prostaglandin agonist in kidney regeneration.

[4] = test system: Bone Morphogenetic Protein 7 (BMP-7) expression in 293S cells transfected with EP2; experiment: Kidney regeneration assay: BMP-7 expression (Northern blot) in EP2 293S cells; type: cell-based, human; conditions: 10^-6M, RNA at 8, 16 and 24 hours
Method: as §1

SMILES	periosteal and cortical endosteal bone formation (tibia defect site)	bone matrix formation at fracture site (rib fracture site)	alveolar bone formation [1]	trabecular bone in the metaphysis [2]	induction of BMP-7 expression [3]	induction of BMP-7 expression [4]
CCCCC[C@H](O)/C=C/[C@H]1[C@H](O)CC(=O)[C@@H]1CCCCCCC(=O)O [PGE1, prostaglandin E1]	more periosteal and cortical endosteal bone formation, with an increased amount of osteoid present	induced bone matrix formation on the periosteal envelope adjacent to the fracture site and its contralateral matching site	dramatic, localized formation of alveolar bone	–	–	–
CCCCC[C@H](O)/C=C/[C@H]1[C@H](O)CC(=O)[C@@H]1C/C=C\CCCC(=O)O [PGE2, prostaglandin E2]	–	–	–	significant increase of trabecular bone in the metaphysis	generally not observed	induce the expression of BMP-7 in the EP2 293S cells in a time dependent manner
